# Tests used:
# [1] = tested on: Staphylococcus aureus FDA 209P; format: cell-based; settings: FDA209P, nutrient agar, 37° C., 18 hours
# [2] = tested on: Staphylococcus aureus Smith; format: cell-based; settings: nutrient agar, 37° C., 18 hours
# [3] = tested on: Staphylococcus epidermidis 109; format: cell-based; settings: nutrient agar, 37° C., 18 hours
# [4] = tested on: Bacillus anthracis; experiment: microbe, parasite or virus in culture; format: cell-based; settings: 18 h
# [5] = tested on: Bacillus subtilis PCI 219; format: cell-based; settings: PCI219, nutrient agar, 37° C., 18 hours
# [6] = tested on: Corynebacterium bovis 1810; experiment: microbe, parasite or virus in culture; settings: Corynebacterium bovis, 1810, 18 h
# Description: (§1) Thus, the minimum inhibitory concentrations (mcg/ml) of the hexadeoxykanamycin and of the hexadeoxyamikacin according to this invention against various microorganisms were determined according to serial dilution method on a nutrient agar medium at 37° C., the estimation being made after 18 hours incubation. For comparison purpose, the minimum inhibitory concentrations of amikacin were also determined in the same manner as stated above.
# [7] = tested on: Serratia marcescens; experiment: microbe, parasite or virus in culture; settings: 18 h
# Description: as §1
# [8] = tested on: Mycobacterium smegmatis ATCC 607; format: cell-based; settings: Mycolicibacterium smegmatis, ATCC607; nutrient agar, 37° C., 18 hours
# [9] = tested on: Escherichia coli NIHJ; format: cell-based; settings: nutrient agar, 37° C., 18 hours
# [10] = tested on: Escherichia coli K-12; format: cell-based; settings: K12, nutrient agar, 37° C., 18 hours
# [11] = tested on: Escherichia coli K-12 R5; format: cell-based; settings: K12R5, 18 h
# [12] = tested on: Escherichia coli K-12 R 388; format: cell-based; settings: K12R388, 18 h
# [13] = tested on: Escherichia coli K-12 ML 1410; format: cell-based; settings: K12ML1410, nutrient agar, 37° C., 18 hours
# [14] = tested on: Escherichia coli K-12 ML 1410 R81; experiment: microbe, parasite or virus in culture; format: cell-based; settings: 18 h
# [15] = tested on: Escherichia coli K-12 LA 290 R56; experiment: microbe, parasite or virus in culture; format: cell-based; settings: K12LA290R56, 18 h
# [16] = tested on: Escherichia coli K-12 LA 290 R64; experiment: microbe, parasite or virus in culture; format: cell-based; settings: K12LA290R64, 18 h
# [17] = tested on: Escherichia coli W677; format: cell-based; settings: nutrient agar, 37° C., 18 hours
# [18] = tested on: Escherichia coli JR66/W677; format: cell-based; settings: JR66/W677, 18 h
# [19] = tested on: Escherichia coli K-12 C 600R135; experiment: microbe, parasite or virus in culture; format: cell-based; settings: K12C600R135, 18 h
# [20] = tested on: Escherichia coli JR255; experiment: microbe, parasite or virus in culture; format: cell-based; settings: JR255, 18 h
# [21] = tested on: Shigella dysenteriae JS 11910; format: cell-based; settings: JS11910, 18 h
# [22] = tested on: Shigella flexneri 4b JS11811; format: cell-based; settings: 4BJS11811, nutrient agar, 37° C., 18 hours
# [23] = tested on: Shigella sonnei JS11746; format: cell-based; settings: nutrient agar, 37° C., 18 hours
# [24] = tested on: Salmonella typhi T-63; format: cell-based; settings: Salmonella enterica, 18 h
# [25] = tested on: Proteus vulgaris OX19; format: cell-based; settings: nutrient agar, 37° C., 18 hours
# [26] = tested on: Proteus rettgeri GN311; format: cell-based; settings: Providencia rettgeri, nutrient agar, 37° C., 18 hours
# [27] = tested on: Proteus rettgeri GN466; format: cell-based; settings: Providencia rettgeri, nutrient agar, 37° C., 18 hours
# [28] = tested on: Serratia SOU; format: cell-based; settings: nutrient agar, 37° C., 18 hours
# [29] = tested on: Serratia 4; format: cell-based; settings: nutrient agar, 37° C., 18 hours
# [30] = tested on: Providencia Pv 16; format: cell-based; settings: PV16, nutrient agar, 37° C., 18 hours
# [31] = tested on: Providencia 2991; format: cell-based; settings: nutrient agar, 37° C., 18 hours
# [32] = tested on: Pseudomonas aeruginosa A3; format: cell-based; settings: A3, nutrient agar, 37° C., 18 hours, read-out: MIC
# [33] = tested on: Pseudomonas aeruginosa No. 12; format: cell-based; settings: nutrient agar, 37° C., 18 hours
# [34] = tested on: Pseudomonas aeruginosa H9; format: cell-based; settings: H9, nutrient agar, 37° C., 18 hours, read-out: MIC
# [35] = tested on: Pseudomonas aeruginosa H11; format: cell-based; settings: nutrient agar, 37° C., 18 hours
# [36] = tested on: Pseudomonas aeruginosa TI-13; format: cell-based; settings: TI13, nutrient agar, 37° C., 18 hours
# [37] = tested on: Pseudomonas aeruginosa GN315; format: cell-based; settings: nutrient agar, 37° C., 18 hours
# [38] = tested on: Pseudomonas aeruginosa 99; format: cell-based; settings: Pseudomonas aeruginosa, 99; nutrient agar, 37° C., 18 hours; read-out: MIC
# [39] = tested on: Pseudomonas aeruginosa B-13; format: cell-based; settings: B13, nutrient agar, 37° C., 18 hours, read-out: MIC
# [40] = tested on: Pseudomonas aeruginosa 21-75; format: cell-based; settings: 2175, nutrient agar, 37° C., 18 hours
# [41] = tested on: Pseudomonas aeruginosa PST1; format: cell-based; settings: nutrient agar, 37° C., 18 hours
# [42] = tested on: Pseudomonas aeruginosa ROS134/PU21; format: cell-based; settings: ROS134/PU21, 18 h
# [43] = tested on: Pseudomonas aeruginosa K-Ps102; format: cell-based; settings: KPS102, nutrient agar, 37° C., 18 hours, read-out: MIC
smiles,measurement,setting,value
"NCC[C@H](O)C(=O)N[C@@H]1C[C@H](N)[C@@H](O[C@H]2O[C@H](CN)[C@@H](O)[C@H](O)[C@H]2O)[C@H](O)[C@H]1O[C@H]1O[C@H](CO)[C@@H](O)[C@H](N)[C@H]1O [Amikacin, 1-N-[(S)-4-amino-2-hydroxybutyryl]kanamycin A, reference compound]",MIC,[1],0.78 µg/mL
same,MIC,[2],0.39 µg/mL
same,MIC,[3],3.13 µg/mL
same,MIC,[4],0.78 µg/mL
same,MIC,[5],0.39 µg/mL
same,MIC,[6],1.56 µg/mL
same,MIC,[7],1.56 µg/mL
same,MIC,[8],0.78 µg/mL
same,MIC,[9],1.56 µg/mL
same,MIC,[10],0.39 µg/mL
same,MIC,[11],100 µg/mL
same,MIC,[12],0.39 µg/mL
same,MIC,[13],1.56 µg/mL
same,MIC,[14],1.56 µg/mL
same,MIC,[15],0.78 µg/mL
same,MIC,[16],1.56 µg/mL
same,MIC,[17],0.78 µg/mL
same,MIC,[18],3.13 µg/mL
same,MIC,[19],0.78 µg/mL
same,MIC,[20],0.78 µg/mL
same,MIC,[21],3.13 µg/mL
same,MIC,[22],3.13 µg/mL
same,MIC,[23],3.13 µg/mL
same,MIC,[24],0.39 µg/mL
same,MIC,[25],1.56 µg/mL
same,MIC,[26],0.39 µg/mL
same,MIC,[27],0.78 µg/mL
same,MIC,[28],25 µg/mL
same,MIC,[29],3.13 µg/mL
same,MIC,[30],1.56 µg/mL
same,MIC,[31],1.56 µg/mL
same,MIC,[32],< 0.2 µg/mL
same,MIC,[33],3.13 µg/mL
same,MIC,[34],6.25 µg/mL
same,MIC,[35],12.5 µg/mL
same,MIC,[36],3.13 µg/mL
same,MIC,[37],25 µg/mL
same,MIC,[38],6.25 µg/mL
same,MIC,[39],6.25 µg/mL
same,MIC,[40],12.5 µg/mL
same,MIC,[41],12.5 µg/mL
same,MIC,[42],100 µg/mL
same,MIC,[43],6.25 µg/mL

# From US4486419A, “5,2',3',4',4",6"-Hexadeoxykanamycin and its 1-N-acylated derivative” (Zaidan Hojin Biseibutsu Kagaku Kenkyu Kai, priority 1982, dated 1984)
